# Reference: ChEMBL document CHEMBL1201862, “PubChem BioAssay data set” (2004)
#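 The compound was tested at five concentrations on cells cultured in 96-well plates, with a 48-hour exposure period. GI50 marks 50% less growth.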 Calls of active or inactive are those of the source. No stated cut-off is given here; in the data, active = GI50 up to about 1.1 µM and inactive = higher.
# Key:
# Test in all cases: inhibition of tumour cell growth, NCI panel, 48 h
# M14 = tested on: M14
# HOP-92 = tested on: HOP-92
# Hs-578T = tested on: Hs-578T
# CAKI-1 = tested on: CAKI-1
# OVCAR-8 = tested on: OVCAR-8
# RXF 393 = tested on: RXF 393
# SK-MEL-5 = tested on: SK-MEL-5
# OVCAR-4 = tested on: OVCAR-4
# UACC-257 = tested on: UACC-257
# ACHN = tested on: ACHN
# CCRF-CEM = tested on: CCRF-CEM
# COLO 205 = tested on: COLO 205
# NCI-H460 = tested on: NCI-H460
# IGROV-1 = tested on: IGROV-1
# SK-MEL-2 = tested on: SK-MEL-2
# SW-620 = tested on: SW-620
# SK-MEL-28 = tested on: SK-MEL-28
# PC-3 = tested on: PC-3
# HCT-116 = tested on: HCT-116
# MDA-N = tested on: MDA-N
# SNB-75 = tested on: SNB-75
# SK-OV-3 = tested on: SK-OV-3
# DU-145 = tested on: DU-145
# TK-10 = tested on: TK-10
# UACC-62 = tested on: UACC-62
# K562 = tested on: K562
# U-251 = tested on: U-251
# LOX IMVI = tested on: LOX IMVI
# A549 = tested on: A549
# MOLT-4 = tested on: MOLT-4
# HCT-15 = tested on: HCT-15
# 786-0 = tested on: 786-0
# BT-549 = tested on: BT-549
# A498 = tested on: A498
# NCI/ADR-RES = tested on: NCI/ADR-RES
# T47D = tested on: T47D
# Malme-3M = tested on: Malme-3M
# HOP-62 = tested on: HOP-62
# HT-29 = tested on: HT-29
# KM12 = tested on: KM12
# MDA-MB-231 = tested on: MDA-MB-231
# OVCAR-3 = tested on: OVCAR-3
# OVCAR-5 = tested on: OVCAR-5
# UO-31 = tested on: UO-31
# NCI-H23 = tested on: NCI-H23
# HL-60 = tested on: HL-60
# SF-268 = tested on: SF-268
# SF-295 = tested on: SF-295
# NCI-H226 = tested on: NCI-H226
# NCI-H522 = tested on: NCI-H522
# EKVX = tested on: EKVX
# SN12C = tested on: SN12C
# MDA-MB-435 = tested on: MDA-MB-435
# MCF7 = tested on: MCF7
# SNB-19 = tested on: SNB-19
# HCC 2998 = tested on: HCC 2998
# RPMI-8226 = tested on: RPMI-8226
# SF-539 = tested on: SF-539
compound,measurement,setting,value
C1CNOCCCONCCCNOCCCONC1,GI50,M14,72.1 µM (inactive)
same,GI50,HOP-92,26.1 µM (inactive)
same,GI50,Hs-578T,59.3 µM (inactive)
same,GI50,CAKI-1,> 100 µM (inactive)
same,GI50,OVCAR-8,60.7 µM (inactive)
same,GI50,RXF 393,20.2 µM (inactive)
same,GI50,SK-MEL-5,> 100 µM (inactive)
same,GI50,OVCAR-4,70.3 µM (inactive)
same,GI50,UACC-257,41.7 µM (inactive)
same,GI50,ACHN,> 100 µM (inactive)
same,GI50,CCRF-CEM,> 100 µM (inactive)
same,GI50,COLO 205,> 100 µM (inactive)
same,GI50,NCI-H460,32.1 µM (inactive)
same,GI50,IGROV-1,56.1 µM (inactive)
same,GI50,SK-MEL-2,25.1 µM (inactive)
same,GI50,SW-620,> 100 µM (inactive)
same,GI50,SK-MEL-28,> 100 µM (inactive)
same,GI50,PC-3,27.6 µM (inactive)
same,GI50,HCT-116,> 100 µM (inactive)
same,GI50,MDA-N,> 100 µM (inactive)
same,GI50,SNB-75,> 100 µM (inactive)
same,GI50,SK-OV-3,37.1 µM (inactive)
same,GI50,DU-145,58.9 µM (inactive)
same,GI50,TK-10,31 µM (inactive)
same,GI50,UACC-62,> 100 µM (inactive)
same,GI50,K562,> 100 µM (inactive)
same,GI50,U-251,31.7 µM (inactive)
same,GI50,LOX IMVI,> 100 µM (inactive)
same,GI50,A549,91.8 µM (inactive)
same,GI50,MOLT-4,> 100 µM (inactive)
same,GI50,HCT-15,> 100 µM
same,GI50,786-0,> 100 µM (inactive)
same,GI50,BT-549,69.5 µM (inactive)
same,GI50,A498,42.5 µM (inactive)
same,GI50,NCI/ADR-RES,95.3 µM (inactive)
same,GI50,T47D,11.3 µM (inactive)
same,GI50,Malme-3M,30.1 µM (inactive)
same,GI50,HOP-62,50.1 µM (inactive)
same,GI50,HT-29,> 100 µM (inactive)
same,GI50,KM12,> 100 µM (inactive)
same,GI50,MDA-MB-231,26.8 µM (inactive)
same,GI50,OVCAR-3,62.2 µM (inactive)
same,GI50,OVCAR-5,> 100 µM (inactive)
same,GI50,UO-31,> 100 µM (inactive)
same,GI50,NCI-H23,> 100 µM (inactive)
same,GI50,HL-60,51.8 µM (inactive)
same,GI50,SF-268,85.9 µM (inactive)
same,GI50,SF-295,93.1 µM (inactive)
same,GI50,NCI-H226,> 100 µM (inactive)
same,GI50,NCI-H522,67.6 µM (inactive)
same,GI50,EKVX,50.2 µM (inactive)
same,GI50,SN12C,77.4 µM (inactive)
same,GI50,MDA-MB-435,> 100 µM (inactive)
same,GI50,MCF7,37.5 µM (inactive)
same,GI50,SNB-19,57.3 µM (inactive)
O=c1[nH]c2ccccc2n1CCCN1CCC(n2c(=O)[nH]c3cc(Cl)ccc32)CC1 [DOMPERIDONE],GI50,M14,16 µM (inactive)
same,GI50,HOP-92,22.2 µM (inactive)
same,GI50,Hs-578T,19.6 µM (inactive)
same,GI50,CAKI-1,15.7 µM (inactive)
same,GI50,OVCAR-8,18.3 µM (inactive)
same,GI50,RXF 393,16 µM (inactive)
same,GI50,SK-MEL-5,14.6 µM (inactive)
same,GI50,OVCAR-4,17.2 µM (inactive)
same,GI50,UACC-257,16.9 µM (inactive)
same,GI50,ACHN,18.8 µM (inactive)
same,GI50,CCRF-CEM,27.8 µM (inactive)
same,GI50,COLO 205,12.7 µM (inactive)
same,GI50,NCI-H460,17.4 µM (inactive)
same,GI50,IGROV-1,19.2 µM (inactive)
same,GI50,SK-MEL-2,19.2 µM (inactive)
same,GI50,SW-620,17.3 µM (inactive)
same,GI50,SK-MEL-28,17 µM (inactive)
same,GI50,PC-3,19.4 µM (inactive)
same,GI50,HCT-116,16.8 µM (inactive)
same,GI50,MDA-N,15.8 µM (inactive)
same,GI50,SK-OV-3,23.7 µM (inactive)
same,GI50,DU-145,19 µM (inactive)
same,GI50,TK-10,20.2 µM (inactive)
same,GI50,UACC-62,18.3 µM (inactive)
same,GI50,K562,21.4 µM (inactive)
same,GI50,A549,21.8 µM (inactive)
same,GI50,HCC 2998,16.7 µM (inactive)
same,GI50,MOLT-4,13.9 µM (inactive)
same,GI50,HCT-15,18.7 µM
same,GI50,786-0,14.4 µM (inactive)
same,GI50,BT-549,18 µM (inactive)
same,GI50,RPMI-8226,20.1 µM (inactive)
same,GI50,A498,23 µM (inactive)
same,GI50,NCI/ADR-RES,23.3 µM (inactive)
same,GI50,T47D,16.3 µM (inactive)
same,GI50,Malme-3M,17.5 µM (inactive)
same,GI50,HOP-62,18.3 µM (inactive)
same,GI50,HT-29,14.6 µM (inactive)
same,GI50,KM12,16.9 µM (inactive)
same,GI50,MDA-MB-231,17.6 µM (inactive)
same,GI50,OVCAR-3,17.9 µM (inactive)
same,GI50,OVCAR-5,20.2 µM (inactive)
same,GI50,UO-31,4.7 µM (inactive)
same,GI50,NCI-H23,17.3 µM (inactive)
same,GI50,HL-60,17.3 µM (inactive)
same,GI50,NCI-H226,24 µM (inactive)
same,GI50,NCI-H522,15.4 µM (inactive)
same,GI50,EKVX,22.8 µM (inactive)
same,GI50,SN12C,16.3 µM (inactive)
same,GI50,MDA-MB-435,16.2 µM (inactive)
same,GI50,MCF7,18 µM (inactive)
COc1ccc2c(c1OC)C(C(Cl)(Cl)Cl)N1CCc3cc4c(cc3C1=C2)OCO4 (stereo unspecified),GI50,M14,28.4 µM (inactive)
same,GI50,HOP-92,23.9 µM (inactive)
same,GI50,Hs-578T,18.4 µM (inactive)
same,GI50,CAKI-1,40.8 µM (inactive)
same,GI50,OVCAR-8,8.11 µM (inactive)
same,GI50,SK-MEL-5,3.94 µM (inactive)
same,GI50,OVCAR-4,5.93 µM (inactive)
same,GI50,UACC-257,7.16 µM (inactive)
same,GI50,ACHN,22.9 µM (inactive)
same,GI50,CCRF-CEM,6.71 µM (inactive)
same,GI50,COLO 205,5.45 µM (inactive)
same,GI50,NCI-H460,10.7 µM (inactive)
same,GI50,IGROV-1,25.5 µM (inactive)
same,GI50,SK-MEL-2,17.2 µM (inactive)
same,GI50,SW-620,21.2 µM (inactive)
same,GI50,SK-MEL-28,12 µM (inactive)
same,GI50,PC-3,24.7 µM (inactive)
same,GI50,SF-539,35 µM (inactive)
same,GI50,HCT-116,10.6 µM (inactive)
same,GI50,MDA-N,15.4 µM (inactive)
same,GI50,SNB-75,46.5 µM (inactive)
same,GI50,SK-OV-3,23.9 µM (inactive)
same,GI50,DU-145,16.3 µM (inactive)
same,GI50,TK-10,27 µM (inactive)
same,GI50,UACC-62,11.8 µM (inactive)
same,GI50,U-251,3.69 µM (inactive)
same,GI50,LOX IMVI,32.7 µM (inactive)
same,GI50,A549,35.6 µM (inactive)
same,GI50,HCC 2998,10.8 µM (inactive)
same,GI50,MOLT-4,16 µM (inactive)
same,GI50,HCT-15,33.3 µM
same,GI50,786-0,15.2 µM (inactive)
same,GI50,BT-549,1.03 µM (active)
same,GI50,RPMI-8226,2.08 µM (inactive)
same,GI50,A498,67.6 µM (inactive)
same,GI50,NCI/ADR-RES,44.6 µM (inactive)
same,GI50,T47D,10.8 µM (inactive)
same,GI50,Malme-3M,11.5 µM (inactive)
same,GI50,HT-29,25.8 µM (inactive)
same,GI50,KM12,7.6 µM (inactive)
same,GI50,MDA-MB-231,23.5 µM (inactive)
same,GI50,OVCAR-3,7.43 µM (inactive)
same,GI50,OVCAR-5,72.6 µM (inactive)
same,GI50,UO-31,35.6 µM (inactive)
same,GI50,NCI-H23,12.9 µM (inactive)
same,GI50,HL-60,15.2 µM (inactive)
same,GI50,SF-268,3.41 µM (inactive)
same,GI50,SF-295,9.31 µM (inactive)
same,GI50,NCI-H226,10.9 µM (inactive)
same,GI50,NCI-H522,13.9 µM (inactive)
same,GI50,EKVX,42.7 µM (inactive)
same,GI50,SN12C,13.1 µM (inactive)
same,GI50,MDA-MB-435,11.1 µM (inactive)
same,GI50,MCF7,28.1 µM (inactive)
same,GI50,SNB-19,5.82 µM (inactive)
